# US20200031820A1, “3-CARBOXYLIC ACID PYRROLES AS NRF2 REGULATORS” (GLSXOSMITHKLINE INTELLECTUAL PROPERTY DEVELOPMENT LIMITED, priority 2016, published 2020)
# Target: T1, Keap1 (321-609) Kelch domain / TAMRA-labeled 16mer NRF2 peptide (ETGE motif) (Homo sapiens, UniProt Q14145)
# T1 construct: the Kelch domain (321-609) of Keap1 is used
# Test: NRF2-Keap1 FP Assay
# Format: binding
# Conditions: 20 nM Keap1 (321-609), 8 nM Tamra labeled peptide
# Source text: One model for the NRF2-Keap1 interaction is through two binding sites in the Neh2 domain on NRF2. The two sites are referred to as the DLG binding motif (latch domain, uM affinity) and the ETGE binding motif (hinge domain, nM affinity). The Keap1 protein consists of an N-terminal region (NTR), a broad complex, tramtrack, and brick a'brac domain (BTB), an intervening region (IVR), a double glycine repeat domain (DGR or Kelch), and a C-terminal region. The DLG and ETGE motifs of NRF2's Neh2 domain bind to the Kelch domain of Keap1 at different affinities. In the Keap1 Kelch fluorescence polarization (FP) assay, a TAMRA-labeled 16mer peptide (AFFAQLQLDEETGEFL) containing the ETGE motif of NRF2 and the Kelch domain (321-609) of Keap1 is used. The assay determines if a compound interferes with the binding between Keap1 […] and the TAMRA-labeled peptide. Binding of TAMRA-labeled NRF2 peptide to Keap1 (321-609) results in a high FP signal. If a compound interferes with the binding between the peptide and the protein, it will cause the assay signal to decrease. Thus, assay signal is inversely proportional to binding inhibition.
# 100 nl of 100× compound dose response curves (serial 3-fold dilutions) in DMSO were stamped using an Echo liquid handling system (Labcyte) into 384-well low volume black assay plates (Greiner, #784076), with DMSO in columns 6 and 18. The top concentration of compound was located in columns 1 and 13. Keap1 (321-609) was diluted to 40 nM (2×) in 1× assay buffer (50 mM Tris, pH 8.0, 100 mM NaCl, 5 mM MgCl2, 1 mM DTT, 2 mM CHAPS, and 0.005% BSA) and 5 ul was added using a Multidrop Combi (Thermo Electron Corporation) equipped with a metal tip dispenser to all wells of the compound plate, except column 18. Column 18 received only 5 ul of assay buffer. Immediately, 5 uL of 16 nM (2×) of Tamra labeled peptide (AFFAQLQLDEETGEFL, 21st Century Biochemicals) was added to all wells of the plate. The plates were spun at 500 rpm for 1 min, incubated for 1 hr at room temperature, and read on an Analyst GT (Molecular Devices) equipped with excitation (530/25 nm) and emission (580/10 nm) filters designed for Tamra probes. A 561 nm dichroic mirror was also used in the Analyst. The final assay concentrations of Keap1 (321-609) and Tamra labeled peptide were 20 nM and 8 nM, respectively. Fluorescence measurements, represented as mP, were used in the transformation of the data. Compound activity was calculated based on percent inhibition, normalized against controls in the assay (Control 1 contains the Tamra peptide and Keap1 (321-609) together (0% response) and control 2 contains the Tamra peptide alone (100% response)). Data analysis was handled using the software package Abase XE (Surrey, United Kingdom. The % inhibition values were calculated by the equation:
# 100−(100*((compound response−average control 2)/(average control 1−average control2))). For calculation of pIC50s, Abase XE uses a four parameter equation.
# IC50s<1 nM (+++++), IC50s 1 nM-10 nM (++++), IC50s 10-100 nM (+++), IC50s 100 nM-1 μM (++), IC50s 1-10 μM (+), IC50s >10 μM (−), or were not determined (ND).
# T1 sequence (Q14145 321-609): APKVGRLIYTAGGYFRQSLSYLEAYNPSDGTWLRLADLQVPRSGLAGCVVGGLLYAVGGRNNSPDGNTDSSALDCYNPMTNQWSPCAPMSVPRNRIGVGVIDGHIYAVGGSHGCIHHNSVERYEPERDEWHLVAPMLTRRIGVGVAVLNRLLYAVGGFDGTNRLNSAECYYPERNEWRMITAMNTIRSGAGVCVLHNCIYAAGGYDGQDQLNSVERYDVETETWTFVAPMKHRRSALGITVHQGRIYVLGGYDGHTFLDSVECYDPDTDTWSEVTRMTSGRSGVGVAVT
row,EC50 [nM],Compound
1,1000 to 10000,"C[C@H]1Cc2ccc(C(F)(F)F)cc2S(=O)(=O)N(C2CCc3c2cccc3-n2ccc(C(=O)O)c2C2CC2)C1 (mixture of isomers) [Example 12, 2-Cyclopropyl-1-(1-((S)-4-methyl-1,1-dioxido-8-(trifluoromethyl)-4,5-dihydrobenzo[f][1,2]thiazepin-2(3H)-yl)-2,3-dihydro-1H-inden-4-yl)-1H-pyrrole-3-carboxylic acid]"
2,10 to 100,"C[C@H]1Cc2ccc(C(F)(F)F)cc2S(=O)(=O)N(Cc2cccc(-n3ccc(C(=O)O)c3[C@@H]3C[C@H]3c3cn(C)nn3)c2)C1 (racemic) [Example 1, 1-(3-(((S)-4-Methyl-1,1-dioxido-8-(trifluoromethyl)-4,5-dihydrobenzo[f]-[1,2]thiazepin-2(3H)-yl)methyl)phenyl)-2-(trans-2-(1-methyl-1H-1,2,3-triazol-4-yl)cyclopropyl)-1H-pyrrole-3-carboxylic acid]"
3,10 to 100,"C[C@H]1Cc2cc(C(F)(F)F)ccc2S(=O)(=O)N(Cc2cccc(-n3ccc(C(=O)O)c3[C@@H]3C[C@H]3c3cn(C)nn3)c2)C1 (racemic) [Example 2, 1-(3-(((S)-4-methyl-1,1-dioxido-7-(trifluoromethyl)-4,5-dihydrobenzo[f][1,2]thiazepin-2(3H)-yl)methyl)phenyl)-2-(trans-2-(1-methyl-1H-1,2,3-triazol-4-yl)cyclopropyl)-1H-pyrrole-3-carboxylic acid]"
4,100 to 1000,"Cc1c(CN2C[C@@H](C)Cc3ccc(C(F)(F)F)cc3S2(=O)=O)cccc1-n1ccc(C(=O)O)c1[C@@H]1C[C@H]1c1cn(C)nn1 (racemic) [Example 10, rac-2-(trans-2-(1-methyl-1H-1,2,3-triazol-4-yl)cyclopropyl)-1-(2-methyl-3-(((S)-4-methyl-1,1-dioxido-8-(trifluoromethyl)-4,5-dihydrobenzo[f][1,2]thiazepin-2(3H)-yl)methyl)phenyl)-1H-pyrrole-3-carboxylic acid]"
5,100 to 1000,"Cc1ccc(CN2C[C@@H](C)Cc3ccc(C(F)(F)F)cc3S2(=O)=O)cc1-n1ccc(C(=O)O)c1[C@@H]1C[C@H]1c1cn(C)nn1 (racemic) [Example 11, rac-2-(trans-2-(1-methyl-1H-1,2,3-triazol-4-yl)cyclopropyl)-1-(2-methyl-5-(((S)-4-methyl-1,1-dioxido-8-(trifluoromethyl)-4,5-dihydrobenzo[f][1,2]thiazepin-2(3H)-yl)methyl)phenyl)-1H-pyrrole-3-carboxylic acid]"
6,10 to 100,"C[C@H](Oc1cccc(-c2cccc(-n3ccc(C(=O)O)c3[C@@H]3C[C@H]3c3cn(C)nn3)c2)c1)C1CCCCC1 (racemic) [Example 13, 1-(3′-((S)-1-Cyclohexylethoxy)-[1,1′-biphenyl]-3-yl)-2-(trans-2-(1-methyl-1H-1,2,3-triazol-4-yl)cyclopropyl)-1H-pyrrole-3-carboxylic acid]"
7,10 to 100,"CCC[C@@H]1CCCCN1C(=O)c1cccc(-c2cccc(-n3ccc(C(=O)O)c3[C@@H]3C[C@H]3c3cn(C)nn3)c2)c1 (racemic) [Example 14, 2-(trans-2-(1-methyl-1H-1,2,3-triazol-4-yl)cyclopropyl)-1-(3′-((R)-2-propylpiperidine-1-carbonyl)-[1,1′-biphenyl]-3-yl)-1H-pyrrole-3-carboxylic acid]"
8,10 to 100,"CCC[C@@H]1CCCCN1C(=O)c1cccc(-c2cccc(-n3ccc(C(=O)O)c3[C@@H]3C[C@H]3c3cn(C)nn3)c2)c1F (racemic) [Example 15, 1-(2′-fluoro-3′-((R)-2-propylpiperidine-1-carbonyl)-[1,1′-biphenyl]-3-yl)-2-(trans-2-(1-methyl-1H-1,2,3-triazol-4-yl)cyclopropyl)-1H-pyrrole-3-carboxylic acid]"
9,10 to 100,Cn1cc([C@@H]2C[C@H]2c2c(C(=O)O)ccn2-c2cccc(CN3Cc4cc(F)ccc4OC(C)(C)C3)c2)nn1 (racemic) [Example 19]
10,10 to 100,Cn1cc([C@@H]2C[C@H]2c2c(C(=O)O)ccn2-c2cccc(CN3Cc4cc(Br)ccc4OC(C)(C)C3)c2)nn1 (racemic) [Example 20]
11,10 to 100,Cn1cc([C@@H]2C[C@H]2c2c(C(=O)O)ccn2-c2cccc(CN3Cc4ccccc4CC(C)(C)C3)c2)nn1 (racemic) [Example 21]
12,10 to 100,"CCCC[C@H]1Cc2ccccc2S(=O)(=O)N(Cc2cccc(-n3ccc(C(=O)O)c3[C@@H]3C[C@H]3c3cn(C)nn3)c2)C1 [Example 3, 1-(3-(((S)-4-butyl-1,1-dioxido-4,5-dihydrobenzo[f][1,2]thiazepin-2(3H)-yl)methyl)phenyl)-2-((1R,2R)-2-(1-methyl-1H-1,2,3-triazol-4-yl)cyclopropyl)-1H-pyrrole-3-carboxylic acid]"
13,10 to 100,"CCCC[C@H]1Cc2ccc(C(F)(F)F)cc2S(=O)(=O)N(Cc2cccc(-n3ccc(C(=O)O)c3[C@@H]3C[C@H]3c3cn(C)nn3)c2)C1 [Example 6, 1-(3-(((S)-4-butyl-1,1-dioxido-8-(trifluoromethyl)-4,5-dihydrobenzo[f][1,2]thiazepin-2(3H)-yl)methyl)phenyl)-2-((1R,2R)-2-(1-methyl-1H-1,2,3-triazol-4-yl)cyclopropyl)-1H-pyrrole-3-carboxylic acid]"
14,10 to 100,"CC[C@H]1Cc2cc(C(F)(F)F)ccc2S(=O)(=O)N(Cc2cccc(-n3ccc(C(=O)O)c3[C@@H]3C[C@H]3c3cn(C)nn3)c2)C1 [Example 7, 1-(3-(((S)-4-ethyl-1,1-dioxido-7-(trifluoromethyl)-4,5-dihydrobenzo[f][1,2]thiazepin-2(3H)-yl)methyl)phenyl)-2-((1R,2R)-2-(1-methyl-1H-1,2,3-triazol-4-yl)cyclopropyl)-1H-pyrrole-3-carboxylic acid]"
15,10 to 100,"C[C@H]1Cc2ccc(Br)cc2S(=O)(=O)N(Cc2cccc(-n3ccc(C(=O)O)c3[C@@H]3C[C@H]3c3cn(C)nn3)c2)C1 [Example 8, 1-(3-(((S)-8-bromo-4-methyl-1,1-dioxido-4,5-dihydrobenzo[f][1,2]thiazepin-2(3H)-yl)methyl)phenyl)-2-((1R,2R)-2-(1-methyl-1H-1,2,3-triazol-4-yl)cyclopropyl)-1H-pyrrole-3-carboxylic acid]"
16,10 to 100,"CC[C@H]1Cc2ccc(Br)cc2S(=O)(=O)N(Cc2cccc(-n3ccc(C(=O)O)c3[C@@H]3C[C@H]3c3cn(C)nn3)c2)C1 [Example 9, 1-(3-(((S)-8-bromo-4-ethyl-1,1-dioxido-4,5-dihydrobenzo[f][1,2]thiazepin-2(3H)-yl)methyl)phenyl)-2-((1R,2R)-2-(1-methyl-1H-1,2,3-triazol-4-yl)cyclopropyl)-1H-pyrrole-3-carboxylic acid]"
17,10 to 100,"C[C@H](Oc1cccc(-c2cccc(-n3ccc(C(=O)O)c3[C@H]3C[C@@H]3c3cn(C)nn3)c2)c1)C1CCCCC1 [Example 17, 1-(3′-((S)-1-cyclohexylethoxy)-[1,1′-biphenyl]-3-yl)-2-((1S,2S)-2-(1-methyl-1H-1,2,3-triazol-4-yl)cyclopropyl)-1H-pyrrole-3-carboxylic acid]"
18,10 to 100,CCC[C@@H]1CCCCN1C(=O)c1cccc(-c2cccc(-n3ccc(C(=O)O)c3[C@@H]3C[C@H]3c3cn(C)nn3)c2)c1Br [Example 22]
19,10 to 100,CCC[C@@H]1CCCCN1C(=O)c1cc(F)cc(-c2cccc(-n3ccc(C(=O)O)c3[C@@H]3C[C@H]3c3cn(C)nn3)c2)c1 [Example 23]
20,100 to 1000,CCC[C@@H]1CCCCN1C(=O)c1cccc(-c2cccc(-n3ccc(C(=O)O)c3[C@@H]3C[C@H]3c3cn(C)nn3)c2)c1C(F)(F)F [Example 24]
